Values of other authors as cited in patent publication US20080274094A1, “Molecular Complex Comprising Arbutine, Ascorbic Acid, Oleuropeina or Its Derivatives Thereof and Related Uses In Medical Field” (MED CARE S.R.L., priority 2005, published 2008).

Legend:
[1] = test system: cultured human melanocytes; conditions: Pigment Cell Res. 1998; mechanism other than induction of tyrosinase activity
TNF alpha receptors = conditions: Biochem Pharmacol 1999, Mancini et al.

effect on TNF alpha receptors (TNF alpha receptors)	Compound	pigmentation of cultured human melanocytes [1]
	OC[C@H]1O[C@@H](Oc2ccc(O)cc2)[C@H](O)[C@@H](O)[C@@H]1O [Arbutin]	increases the pigmentation
inhibitory effect	Cc1ccc(C(=O)Nc2ccc(S(=O)(=O)O)c3cc(S(=O)(=O)O)cc(S(=O)(=O)O)c23)cc1NC(=O)c1cccc(NC(=O)Nc2cccc(C(=O)Nc3cc(C(=O)Nc4ccc(S(=O)(=O)O)c5cc(S(=O)(=O)O)cc(S(=O)(=O)O)c45)ccc3C)c2)c1 [suramin]	
